{
  "source": "patent US5420106A",
  "about": "“Method and composition having enhanced alpha-hydroxy acid skin permeation and retention” (priority 1994, dated 1995)",
  "key": {"[1]": {"assay": "In-vitro skin permeation study of lactic acid, Franz diffusion cell at finite dose (14C-lactic acid)", "type": "in vitro ADME", "protocol": "The skin permeation test was conducted by the following procedure:\nIn-vitro Skin Permeation Study\n(§1) Franz Diffusion Cell Study at Finite Dose\n(§2) For each formulation, skin sections were mounted on three or four flat flange Franz diffusion cells (FDC 400) with a diffusional cross-section area of 1.2cm^2. About 60 to 100 mg of test formulation were placed on the stratum corneum surface of the skin in the donor compartment and the receptor compartment was filled with about 11 ml of normal saline. The receptor fluid was well stirred throughout the experiment and the temperature was maintained by circulating water at 37° C. through the water jacket of the diffusion cells. Precisely 500 μl of receptor fluid was collected in a scintillation vial at appropriate intervals for a period of 68 hours. […] The receptor fluid was replenished after each withdrawal. All the receptor fluid and replenished fluids were filtered using a 0.22 μm filter and thoroughly degassed before use."}, "[2]": {"assay": "Skin retention of lactic acid (epidermis and dermis analysis after the permeation study)", "type": "in vitro ADME", "protocol": "as §1, §2\nCotton swabs were used during the rinsing procedure to recover the remaining surface dose. A circular incision was made in the skin exposed to the formulation. The epidermis at the circular edge was slowly lifted using a pointed flat spatula, and then separated from the dermis using forceps. The epidermis and dermis were transferred to previously weighed teflon tape and dried in a desiccator for 72 hours until a constant weight was obtained. […]"}, "[3]": {"details": "cited from earlier work"}, "[4]": {"details": "in vivo; cited from earlier work"}, "[5]": {"details": "hydrated skin; cited from earlier work"}},
  "data": [
    {"smiles": "CCCCCCCCCCCCCC(=O)OC(C)C", "note": "[IPM, isopropyl myristate]", "values": [
      {"measurement": "skin permeation enhancer effect for lactic acid", "setting": "[1]; FIGS. 1-2, IPM vs PGD in lysine lactate lotions", "result": "better skin permeation enhancer for lactic acid than PGD"}
    ]},
    {"smiles": "CC(O)C(=O)O", "note": "(centres unmarked) [ammonium lactate]", "values": [
      {"measurement": "skin retention of lactic acid / α-hydroxy acid (general finding)", "setting": "[2]", "result": "excellent lactic acid skin permeation and skin retention profiles"},
      {"measurement": "skin retention of lactic acid", "setting": "[2]; pH 4.6", "result": "excellent skin retention"},
      {"measurement": "potency for other dermatological disorders", "setting": "[3]; U.S. Pat. No. 5,091,171, topical ammonium salts", "result": "lost most of its potency"},
      {"measurement": "effectiveness in treating dermatological disorders", "setting": "[3]; topical", "result": "very effective"},
      {"measurement": "skin irritation", "setting": "[4]", "result": "skin irritant to a degree which many patients find unacceptable"}
    ]},
    {"smiles": "CC(C)[C@H](N)C(=O)O", "note": "[valine]", "values": [
      {"measurement": "enhancement of skin permeation of lactic acid by valine", "setting": "[1]", "result": "does not enhance skin permeation of lactic acid"}
    ]},
    {"smiles": "CC(C)NCC(O)COc1cccc2ccccc12", "note": "(centres unmarked) [propranolol]", "values": [
      {"measurement": "permeation or permeation rate on hydration of skin", "setting": "[5]", "result": "decreases the permeation rate by two fold"}
    ]}
  ]
}
